This note sets out measurements from patent US6441036B1 (priority 1998, dated 2002).

Data set [1] deals with mouse lymphoma cells, L5178Y. Briefly: Mutagenicity test in mouse lymphoma cells L5178Y. As to conditions: concentration 2.5-50 mg/ml. The format is cell-based. From the text:
(§1) Tests for mutagenic activity have been performed by Covance Laboratories Limited, England. […] Furthermore, TTA was not mutagenic when tested in mouse lymphoma cells […] L5178Y.

The test system of data set [2] is mitochondrial β-oxidation. The data set can be described thus: Liver fatty acid oxidation in treated obese Zucker rats (Example 16). To be noted: palmitoyl-CoA and palmitoyl-L-carnitine as substrates; chow with 0.15% TTA, 21 days. The format is in vivo, obese Zucker (fa/fa) rats. The protocol:
Freshly isolated livers from individual old Zucker rats, were homogenised in ice-cold sucrose buffer (0.25 M sucrose, 10 mM HEPES (pH 7.4) and 2 mM EDTA). Post-nuclear and mitochondrial fractions were prepared using preparative differential centrifugation according to DeDuve et al. (De Duve, C., et al., Biochem. J., 60, 604-617 1955.) Modifications, purity and yield were as described earlier (Garras, A., et al., Biochim. Biophys. Acta, 1255, 154-160 1995.). Acid soluble products were measured in post-nuclear and mitochondrial enriched fractions, using [1-^14C]-palmitoyl-CoA and [1-^14C]-palmitoyl-L-carnitine (Radio-chemical Centre, Amersham, England) as substrates as described earlier (Willumsen, N., et al., J. Lipid Res., 34, 13-22 1993. Carnitine palmitoyltransferase-I and -II activities were measured in the post-nuclear and mitochondrial fractions essentially as described by Bremer (Bremer, J., Biochim. Biophys. Acta, 665, 628-631 1981.) and 3-hydroxy-3-methylglutharyl-CoA synthase was measured according to Clinkenbeard et al. (Clinkenbeard, K. D., et al., J. Biol. Chem, 250, 3108-3116 1975.) in the mitochondrial fractions.
Obese Zucker (fa/fa) rats were given a standard chow either with (n=6) or without (n=5) 0.15% TTA. Following 21 days of treatment, rats were killed by cervical dislocation and the livers were removed. […] Values are expressed as the mean±S.D.

Another data set has as its system Salmonella typhimurium. Briefly: Test for mutagenic activity in Salmonella typhimurium strains. It is filed as cell-based. To be noted: 3-1000 mg/plate (TTA), 2-5000 mg/plate (TSA).
From the text: as §1

A short description of data set [3]: High fat diet feeding, adipose tissue weights (Example 5). It is filed as in vivo, Wistar Charles River rats. To be noted: high fat diet + 0.4% TTA, three weeks; means ± SEM. As for the experimental part: Male Wistar rats Charles River rats weighing 280-358 g were purchases from AnLab Ltd. (Prague, Czech Repubic) and housed in wire-mesh cages in a temperature (22±1° C.) and light-controlled (light from 7:00 a.m. to 7.00 p.m.) room. They were given free access to chow and water. Three rats were housed per cage. Weight gain and food intake were recorded daily.
High fat (HF): 1.9% gelatin, 5.7% wheat bran, 7.7% vitamins and minerals, 25.4% corn starch, 25.7% casein, 26.8% beef tallow and 7.1 % sunflower oil.
HF+TTA: Same +0.4% TTA dissolved in the beef tallow.
Male Wistar Charles River rats (280-360 g) were fed 3 different diets (see methods) for 3 weeks ad libitum. Afterwards, they were killed by decapitation, liver and epididymal adipose tissue pads were dissected out and weighed.

The nature of data set [4]: Euglycemic hyperinsulinemic clamp, high fat diet induced insulin resistance (Example 12). To be noted: HF diet supplemented with TTA, 21 days; 45-90 minutes of clamp. The format is in vivo, Wistar Charles River rats. As for the experimental part: After 21 days on their respective diets (see above), the rats were anaesthetised by injection of xylazine hydrochloride (Rometar SPOFA, Prague, Czech Republic; 10 mg/ml) and ketamine hydrochloride (Narkamon SPOFA, Prague, Czech republic; 75 mg/ml), and fitted with chronic carotid artery and jugular vein cannulas as described by Koopmans et al. (Koopmans, S. J., et al., Biochim Biophys Acta, 1115, […] 1992.). The cannulated rats were allowed to recover for two days after surgery before the clamping studies which were carried out according to Kraegen et al. (Kraegen, E. W., et al., Am J Physiol, 248, E353-E362 1983.). Thus, on the third day after surgery, unrestrained conscious rats were given a continuous infusion of porcine insulin (Actrapid, Novo Nordisk, Denmark) at a dose of 6.4mU per kg per min to achieve plasma insulin levels in the upper physiological range. The arterial blood glucose concentration was clamped at the basal fasting level, by variable infusion of a 30% w/v glucose solution (Leciva, Prague, Czech Republic). […]
Rats weighing 330±20 g were divided into 3 groups (n=9) and fed with three different diets: standard rat chow, high fat diet (HF) and HF supplemented with TTA. […] The glucose infusion rate (GIR) was determined from the period of the clamp where glycemia got stabilised, i.e. between 45-90 minutes after clamp commencement. […]

Data set [5] is described as follows: Weight reduction in dogs (Example 10). The format is in vivo. To be noted: male dogs, 500 mg/kg/day orally in capsules. As for the experimental part:
3 male dogs (4-6 months old) were housed singly during the days. Each animal was offered 400g of SQC Diet A each morning after dosing and any residue diet was removed in the afternoon. The drug was administered orally in capsules once daily for 28 days.

For a further data set, the system named is Escherichia coli. Briefly: Test for mutagenic activity in Escherichia coli strains. As to conditions: 3-1000 mg/plate (TTA), 2-5000 mg/plate (TSA). The format is cell-based.
From the text: as §1

Take Tetradecylthioacetic acid [TTA]: the Mutagenicity result in data set [1] is given as “not mutagenic”. In addition, in data set [2], the “Increase of liver fatty acid oxidation (FIG. 8A)” value is “more than 7 fold”. The Induction of mutations entry in the data set with Salmonella typhimurium and in the data set with Escherichia coli was “did not induce mutations” each time. In addition, in data set [3], the Epididymal adipose tissue came out at 3.1 ± 0.2 g. The Retroperitoneal adipose tissue in data set [3] turned out to be 2.7 ± 0.2 g. In addition, the “Glucose infusion rate (GIR) in clamp (FIG. 4)” value in data set [4] is “fully normal”. The Mean body weight is listed as 9.22 kg in data set [5] (week 0); 8.95 kg in data set [5] (week 1); 8.75 kg in data set [5] (week 2); 8.58 kg in data set [5] (week 3); 8.50 kg in data set [5] (week 4).
